Data as given in patent US20170354655A1, “TLR INHIBITOR AND BRUTON'S TYROSINE KINASE INHIBITOR COMBINATIONS” (Pharmacyclics LLC, priority 2014, published 2017).

Assays:
TMD8 cells = test: Combined drug treatment with 5Z-7-Oxozeaenol and ibrutinib, CellTiter-Glo cell viability in TMD8 cell line; format: cell-based
Method: A 40 μL aliquot of CellTiter-Glo® reagent was added directly into each well of the 96-W plate. The plate was then shaken on a Shaker (Labsystem Wellmix) at speed 5 for 10-20 min at room temperature. Next, about 100 μL of the mixed medium was transferred to a white, non-transparent, flat bottom 96-W plate for assaying. A Flexstation 3 luminometer was used for detecting and measuring the luminescent signals. Measurements were taken at room temperature.
The luminescent measurements were subsequently processed and analyzed using CalcuSyn (CI) and Chalice Analyzer (synergy score). CalcuSyn performs the multiple drug dose-effect calculations using the Median Effect methods described by T-C Chou and P. Talalay in “Analysis of combined drug effects: a new look at a very old problem,” Trends Pharmacol. Sci. 4:450-454 (1983). In general, the resulting combination index (CI) obtained from the Chou-Talalay method defines quantitatively for additive effect (CI=1), synergism (CI<1), and antagonism (CI>1) in drug combinations. Chalice Analyzer utilizes the method described in Lehar et al. “Synergistic drug combinations improve therapeutic selectivity,” Nat. Biotechnol. 27(7):659-666 (2009). Synergy scores is higher than 1 indicate synergy between two compounds, with higher synergy scores indicating better synergy.
200 μl of TMD8 wt cells (1.0×10^4 cells) at 5.0×10^4 cells/ml was plated into each well of a 96-well plate. The cells were grown in RPMI-10P medium.
The TAK1 inhibitor used for this experiment was 5Z-7-oxozeaenol. […] The stock solution for chloroquine diphosphate was prepared at 20 mM concentration. The CellTiter-Glo® assay follow the protocols of Example 1.

[1] = test system: patients who have the activated B-cell like (ABC) subtype of DLBCL; settings: cited from earlier work

SMILES: COc1cc(O)c2c(c1)/C=C/C[C@H](O)[C@H](O)C(=O)/C=C\C[C@H](C)OC2=O [5Z-7-Oxozeaenol, 5Z-7-oxozeaenol]
- luminescent signal (CellTiter-Glo) (TMD8 cells; 5Z-7-OXO 1 nM, ibrutinib 0 nM): 259932
- luminescent signal (CellTiter-Glo) (TMD8 cells; 5Z-7-OXO 1 nM, ibrutinib 0.00026 nM): 249856
- luminescent signal (CellTiter-Glo) (TMD8 cells; 5Z-7-OXO 1 nM, ibrutinib 0.00128 nM): 259290
- luminescent signal (CellTiter-Glo) (TMD8 cells; 5Z-7-OXO 1 nM, ibrutinib 0.0064 nM): 236187
- luminescent signal (CellTiter-Glo) (TMD8 cells; 5Z-7-OXO 1 nM, ibrutinib 0.032 nM): 249545
- luminescent signal (CellTiter-Glo) (TMD8 cells; 5Z-7-OXO 1 nM, ibrutinib 0.16 nM): 181569
- luminescent signal (CellTiter-Glo) (TMD8 cells; 5Z-7-OXO 1 nM, ibrutinib 0.8 nM): 127363
- luminescent signal (CellTiter-Glo) (TMD8 cells; 5Z-7-OXO 1 nM, ibrutinib 4 nM): 98378.9
- luminescent signal (CellTiter-Glo) (TMD8 cells; 5Z-7-OXO 1 nM, ibrutinib 20 nM): 98536.7
- luminescent signal (CellTiter-Glo) (TMD8 cells; 5Z-7-OXO 1 nM, ibrutinib 100 nM): 78834.1
- luminescent signal (CellTiter-Glo) (TMD8 cells; 5Z-7-OXO 10 nM, ibrutinib 0 nM): 277804
- luminescent signal (CellTiter-Glo) (TMD8 cells; 5Z-7-OXO 10 nM, ibrutinib 0.00026 nM): 260616
- luminescent signal (CellTiter-Glo) (TMD8 cells; 5Z-7-OXO 10 nM, ibrutinib 0.00128 nM): 241442
- luminescent signal (CellTiter-Glo) (TMD8 cells; 5Z-7-OXO 10 nM, ibrutinib 0.0064 nM): 223023
- luminescent signal (CellTiter-Glo) (TMD8 cells; 5Z-7-OXO 10 nM, ibrutinib 0.032 nM): 222768
- luminescent signal (CellTiter-Glo) (TMD8 cells; 5Z-7-OXO 10 nM, ibrutinib 0.16 nM): 175048
- luminescent signal (CellTiter-Glo) (TMD8 cells; 5Z-7-OXO 10 nM, ibrutinib 0.8 nM): 120925
- luminescent signal (CellTiter-Glo) (TMD8 cells; 5Z-7-OXO 10 nM, ibrutinib 4 nM): 96219.6
- luminescent signal (CellTiter-Glo) (TMD8 cells; 5Z-7-OXO 10 nM, ibrutinib 20 nM): 86196
- luminescent signal (CellTiter-Glo) (TMD8 cells; 5Z-7-OXO 10 nM, ibrutinib 100 nM): 86511.6
- luminescent signal (CellTiter-Glo) (TMD8 cells; 5Z-7-OXO 100 nM, ibrutinib 0 nM): 167090
- luminescent signal (CellTiter-Glo) (TMD8 cells; 5Z-7-OXO 100 nM, ibrutinib 0.00026 nM): 168173
- luminescent signal (CellTiter-Glo) (TMD8 cells; 5Z-7-OXO 100 nM, ibrutinib 0.00128 nM): 147600
- luminescent signal (CellTiter-Glo) (TMD8 cells; 5Z-7-OXO 100 nM, ibrutinib 0.0064 nM): 151829
- luminescent signal (CellTiter-Glo) (TMD8 cells; 5Z-7-OXO 100 nM, ibrutinib 0.032 nM): 130054
- luminescent signal (CellTiter-Glo) (TMD8 cells; 5Z-7-OXO 100 nM, ibrutinib 0.16 nM): 98728.8
- luminescent signal (CellTiter-Glo) (TMD8 cells; 5Z-7-OXO 100 nM, ibrutinib 0.8 nM): 54512.9
- luminescent signal (CellTiter-Glo) (TMD8 cells; 5Z-7-OXO 100 nM, ibrutinib 4 nM): 42472
- luminescent signal (CellTiter-Glo) (TMD8 cells; 5Z-7-OXO 100 nM, ibrutinib 20 nM): 40678.2
- luminescent signal (CellTiter-Glo) (TMD8 cells; 5Z-7-OXO 100 nM, ibrutinib 100 nM): 34016
- luminescent signal (CellTiter-Glo) (TMD8 cells; 5Z-7-OXO 1000 nM, ibrutinib 0 nM): 27259.1
- luminescent signal (CellTiter-Glo) (TMD8 cells; 5Z-7-OXO 1000 nM, ibrutinib 0.00026 nM): 29868.2
- luminescent signal (CellTiter-Glo) (TMD8 cells; 5Z-7-OXO 1000 nM, ibrutinib 0.00128 nM): 25315.4
- luminescent signal (CellTiter-Glo) (TMD8 cells; 5Z-7-OXO 1000 nM, ibrutinib 0.0064 nM): 23976.6
- luminescent signal (CellTiter-Glo) (TMD8 cells; 5Z-7-OXO 1000 nM, ibrutinib 0.032 nM): 20081.4
- luminescent signal (CellTiter-Glo) (TMD8 cells; 5Z-7-OXO 1000 nM, ibrutinib 0.16 nM): 15015.6
- luminescent signal (CellTiter-Glo) (TMD8 cells; 5Z-7-OXO 1000 nM, ibrutinib 0.8 nM): 12627.5
- luminescent signal (CellTiter-Glo) (TMD8 cells; 5Z-7-OXO 1000 nM, ibrutinib 4 nM): 13032.5
- luminescent signal (CellTiter-Glo) (TMD8 cells; 5Z-7-OXO 1000 nM, ibrutinib 20 nM): 13048.3
- luminescent signal (CellTiter-Glo) (TMD8 cells; 5Z-7-OXO 1000 nM, ibrutinib 100 nM): 12982.5
- luminescent signal (CellTiter-Glo) (TMD8 cells; 5Z-7-OXO 10000 nM, ibrutinib 0 nM): 4563.35
- luminescent signal (CellTiter-Glo) (TMD8 cells; 5Z-7-OXO 10000 nM, ibrutinib 0.00026 nM): 4729.05
- luminescent signal (CellTiter-Glo) (TMD8 cells; 5Z-7-OXO 10000 nM, ibrutinib 0.00128 nM): 4731.68
- luminescent signal (CellTiter-Glo) (TMD8 cells; 5Z-7-OXO 10000 nM, ibrutinib 0.0064 nM): 4700.12
- luminescent signal (CellTiter-Glo) (TMD8 cells; 5Z-7-OXO 10000 nM, ibrutinib 0.032 nM): 5299.8
- luminescent signal (CellTiter-Glo) (TMD8 cells; 5Z-7-OXO 10000 nM, ibrutinib 0.16 nM): 5307.69
- luminescent signal (CellTiter-Glo) (TMD8 cells; 5Z-7-OXO 10000 nM, ibrutinib 0.8 nM): 5441.83
- luminescent signal (CellTiter-Glo) (TMD8 cells; 5Z-7-OXO 10000 nM, ibrutinib 4 nM): 5749.55
- luminescent signal (CellTiter-Glo) (TMD8 cells; 5Z-7-OXO 10000 nM, ibrutinib 20 nM): 5957.34
- luminescent signal (CellTiter-Glo) (TMD8 cells; 5Z-7-OXO 10000 nM, ibrutinib 100 nM): 6244.03
- CI value for the 5Z-7-Oxozeaenol/ibrutinib combination (TMD8 cells; TMD8 cells): 0.17
- synergy score for the 5Z-7-Oxozeaenol/ibrutinib combination (TMD8 cells; TMD8 cells): 4.63
- synergy with ibrutinib (in words) (TMD8 cells; TMD8 cells): Synergy was observed

SMILES: C=CC(=O)N1CCC[C@@H](n2nc(-c3ccc(Oc4ccccc4)cc3)c3c(N)ncnc32)C1 [ibrutinib, 1-((R)-3-(4-amino-3-(4-phenoxyphenyl)-1H-pyrazolo[3,4-d]pyrimidin-1-yl)piperidin-1-yl)prop-2-en-1-one]
- luminescent signal (CellTiter-Glo) (TMD8 cells; 5Z-7-OXO 0 nM, ibrutinib 0.00026 nM): 268264
- luminescent signal (CellTiter-Glo) (TMD8 cells; 5Z-7-OXO 0 nM, ibrutinib 0.00128 nM): 245879
- luminescent signal (CellTiter-Glo) (TMD8 cells; 5Z-7-OXO 0 nM, ibrutinib 0.0064 nM): 240905
- luminescent signal (CellTiter-Glo) (TMD8 cells; 5Z-7-OXO 0 nM, ibrutinib 0.032 nM): 249480
- luminescent signal (CellTiter-Glo) (TMD8 cells; 5Z-7-OXO 0 nM, ibrutinib 0.16 nM): 190532
- luminescent signal (CellTiter-Glo) (TMD8 cells; 5Z-7-OXO 0 nM, ibrutinib 0.8 nM): 126175
- luminescent signal (CellTiter-Glo) (TMD8 cells; 5Z-7-OXO 0 nM, ibrutinib 4 nM): 96203.8
- luminescent signal (CellTiter-Glo) (TMD8 cells; 5Z-7-OXO 0 nM, ibrutinib 20 nM): 90633.1
- luminescent signal (CellTiter-Glo) (TMD8 cells; 5Z-7-OXO 0 nM, ibrutinib 100 nM): 94612.5
- overall response rate [1]: 41%
- overall survival [1]: 9.7 month
